Data on four molecules can be found in US7166569B2, “Method for the prevention of transplant rejection” (priority 1994, dated 2007).

Test [1] in a line: Experiment 1: administration of arginine (an HGH releaser) and DHEA to a human patient, fasting blood analysis. The test is classed as in vivo. From the text: A human patient was placed on a standardized regimen of nutrient intake for two weeks to establish a baseline prior to ingesting any HGH releasing agents. The evening prior to blood analysis, the same evening meal was consumed (salmon, potato, white wine, vegetables, and Caesar salad). Upon establishing basal values for glucose, insulin, somatomedin C (a marker for growth hormone), DHEA-sulfate, serum lipids, and testosterone, a daily regimen of ingesting 15 grams of arginine just before bedtime was instituted. This regimen was maintained for one week, after which a new baseline was obtained. The evening following this new baseline measurement, DHEA was ingested at a dose of 180 mg (two 90 mg capsules taken simultaneously) at the same time as the arginine. This was continued for one week and the baseline levels of metabolites were rechecked. Finally, for the last week, the arginine dose was administered every other day or at 7.5 g/day while DHEA levels were maintained. Thus, the data points are as follows: • 1: Baseline—begin 15 gm/day administration of arginine; • 2: Day 7—begin 180 mg/day DHEA; • 3: Day 14—begin 15 gm arginine every other day or 7.5 g/day; and • 4: Day 21—end of experiment, no arginine administered the previous night.

Test [2] is described as follows: Independent experiment: IGF-1 level after arginine ingestion. The test is classed as in vivo. The note with it: two hours after arginine ingestion; basal 223 ng/ml. An excerpt: This drop was sustained as long as arginine administration was continued. […] Others have also measured somatomedin C levels following arginine ingestion or infusion, and found them to be depressed despite good release of HGH. There is no explanation for this paradox, but it is not material to the fact that HGH is released by arginine and that released HGH does elevate insulin and that DHEA does block this insulin-elevating effect.

For test [3] the following is noted: humans, arginine ingestion or infusion; cited from earlier work.
For test [4] the following is noted: cited from earlier work.
The nature of test [5]: Experiment 2: administration of HGH and DHEA, blood metabolite levels. The test is classed as in vivo, human. The protocol: As in the first experiment, a standard dietary regimen was followed the evening before each blood sample was collected. HGH administration was initiated one day after a baseline blood sample was drawn. HGH was injected subcutaneously at a dose of approximately 0.018 mg/kg/day, every other night, and was injected near midnight prior to blood collection the following morning. Blood was collected between 10:30 and 11:00 a.m. The second blood sample was taken on day 8, or just over 7 days after beginning HGH injections (4 injections in total to that time). After this second blood sample, a “wash out” period of two days was allowed prior to reinitiating injections according to the same schedule. On day 9, during the HGH “wash out” period, a priming dose of 200 mg of DHEA was taken in divided doses to prepare the patient for the HGH. The second round of injections was done simultaneously with the ingestion of two 100 mg capsules of DHEA, beginning on the evening of day 10. This regimen continued for a total of 4 HGH injections, culminating in the final injection on day 16 and blood sampling on day 17. Two hundred mg of DHEA were taken also on the nights between HGH injections, at the normal time. HGH injections were administered near midnight of the day stated.

Some results are limits rather than exact numbers.

With `N=C(N)NCCC[C@H](N)C(=O)O` [arginine], the “insulin determination after only 3 days of arginine ingestion” value in test [1] (3 days of arginine, data not shown in FIG. 1) was “normal insulin level”. In addition, the “somatomedin C (IGF-1) levels in response to oral arginine” value in test [1] (FIG. 5, sustained as long as arginine was continued) is “DROP”. The “circulating level of DHEA-sulfate, point 4 versus point 3” value in test [1] (fall in arginine ingestion, no drop in DHEA ingestion) is listed as “fell”. Further, the glucose concentration entry in test [1] (fasting serum, during introduction and tapering off of arginine) was “no change”. Moreover, the “fasting serum insulin rise in response to arginine ingestion” value in test [1] (point 2, day 7, 15 g/day arginine at bedtime, no DHEA) is listed as around 50%. Also, the “DHEA-sulfate, endogenous change” value in test [1] (point 2 versus point 1, arginine only, no DHEA ingested) is listed as “noticeable increase”. In test [2], the “IGF-1 level after arginine ingestion” value was found to be 166 ng/mL. In test [3], the “time for insulin to fall back to baseline after arginine” value was 1 to 2 h and the “time to peak of insulin levels after arginine” value is at most 30 min.
For the molecule Chromium picolinate, the “extension of the life span of animals” value in test [4] is listed as 50%.
On to “HGH: recombinant or natural human growth hormone”, for which, in test [5] (HGH approx. 0.018 mg/kg/day s.c. every other night, day 8), the “insulin rise prior to DHEA ingestion” value is 57%. Besides, in test [5] (HGH only), the DHEA-sulfate change result is reported as “unaltered” and the “circulating DHEA levels, depression” value is recorded as “a third”. The Insulin level in test [5] (serum, by stage of experiment, baseline 6.6) was 10.4 uU/ml. For the same molecule, the IGF-1 level in test [5] (serum, by stage of experiment, baseline 27.0) came to 35.5 µg/dL. Further, the DHEA-sulfate level in test [5] (serum, by stage of experiment, baseline 146) is 146 µg/dL. In test [5] (serum, by stage of experiment, baseline 360), the DHEA level came to 240 ng/dL.
Regarding `C[C@]12CC[C@H](O)CC1=CC[C@@H]1[C@@H]2CC[C@]2(C)C(=O)CC[C@@H]12` [DHEA, dehydroepiandrosterone], the “insulin level at point 4” value in test [1] (day 21, DHEA maintained, arginine every other day, none the night before) is on record as “returned to basal levels”. In addition, the “fasting serum insulin, % of basal levels” value in test [1] (point 3, day 14, 180 mg/day DHEA with continuing undiminished 15 g/day arginine) is recorded as 76%.
